Data: patent US12398411B2, “Method for producing selenoneine” (KIKKOMAN CORPORATION, priority 2018, dated 2025)

Key:
[1] = system: Aspergillus sojae NBRC4239 strain; test: Toxicity of selenium compounds: cell proliferation with alamarBlue Cell Viability Reagent; type: cell-based; details: conidia of Aspergillus sojae NBRC4239; 0-2 mM final concentration; 30° C. for 30 hours
Description: The cytotoxicity of sodium selenite was tested as follows. To quantify cell proliferation, alamarBlue Cell Viability Reagent (Thermo Fisher Scientific) was used.
The mixture composed of 2× DPY liquid medium (2 (w/v) % polypeptone, 4 (w/v) % dextrin, 1 (w/v) % yeast extract, 1 (w/v) % KH2PO4, 0.1 (w/v) % MgSO4·7H2O; pH not adjusted), 2× alamarBlue and 2×10^4 cells/ml the conidia of Aspergillus sojae NBRC4239 strain was dispensed in the volume of 100 μl into each well of a microplate. Similarly, 100 μl of an aqueous sodium selenite solution was added to each well so that the final concentration was 0 mM, 0.125 mM, 0.25 mM, 0.5 mM, 1 mM and 2 mM. The blank without the addition of the conidia and sodium selenite solution was used as a blank.
After incubating the microplate at 30° C. for 30 hours, absorbance at 570 nm was measured. A plot of the value calculated by subtracting absorbance at 600 nm of the blank from the measurement result according to the instruction manual of alamarBlue reagent is shown in FIG. 4.

[2] = known to have; no test by the applicant; cited from earlier work

## O=[Se](O)O [sodium selenite]
[1]
  degree of mycelial growth observed visually: No difference
  growth inhibition (cytotoxicity, absorbance at 570 nm, FIG. 4): no growth inhibition

## C[N+](C)(C)[C@@H](Cc1cnc([Se-])[nH]1)C(=O)O [selenoneine]
[2]
  antioxidant activity relative to its thio analog, ergothioneine: 1,000 times
